Measurements from patent publication US12642797B2, “Coated granule, solid dispersion, and preparation containing vortioxetine hydrobromide for oral taste masking” (Seasons Biotechnology (Taizhou) Co., Ltd., priority 2019, dated 2026).
Where a name gives a salt, the structure may show the parent alone.

Tested on: oral cavity and tongue
Assay: Taste and irritation test by subjects (self-made sample vs reference sample)
Assay type: in vivo, human
Details: for Instantaneous irritation: 0-1 minute; for Instantaneous irritation / Delayed irritation: powder equivalent to 20 mg of vortioxetine tasted, hemihydrobromide
Protocol: In the examples, the taste masking effects of test samples were evaluated by the subject's perception of the bitterness and irritation of the oral cavity and tongue. The Taste and Irritation Classification Tested by the Subjects: [table]

[1] = Subject 1, listed as Reference sample (1a)
[2] = Subject 1, listed as Reference sample (1e)
[3] = Subject 1, listed as Reference sample (2a)
[4] = Subject 1, listed as Reference sample (2c)
[5] = Subject 1, listed as Reference sample (3a)
[6] = Subject 1, listed as Reference sample (3b)
[7] = Subject 1, listed as Reference sample (3c)
[8] = Subject 1, listed as Reference sample (4a)
[9] = Subject 1, listed as Reference sample (1d)
[10] = Subject 1, listed as Reference sample (2d)
[11] = Subject 2, listed as Reference sample (1a)
[12] = Subject 2, listed as Reference sample (1e)
[13] = Subject 2, listed as Reference sample (2a)
[14] = Subject 2, listed as Reference sample (2c)
[15] = Subject 2, listed as Reference sample (3a)
[16] = Subject 2, listed as Reference sample (3b)
[17] = Subject 2, listed as Reference sample (3c)
[18] = Subject 2, listed as Reference sample (4a)
[19] = Subject 2, listed as Reference sample (1d)
[20] = Subject 2, listed as Reference sample (2d)
[21] = Subject 3, listed as Reference sample (1a)
[22] = Subject 3, listed as Reference sample (1e)
[23] = Subject 3, listed as Reference sample (2a)
[24] = Subject 3, listed as Reference sample (2c)
[25] = Subject 3, listed as Reference sample (3a)
[26] = Subject 3, listed as Reference sample (3b)
[27] = Subject 3, listed as Reference sample (3c)
[28] = Subject 3, listed as Reference sample (4a)
[29] = Subject 3, listed as Reference sample (1d)
[30] = Subject 3, listed as Reference sample (2d)

Cc1ccc(Sc2ccccc2N2CCNCC2)c(C)c1 [vortioxetine hemihydrobromide]
Irritation, overall comparison in words (5 subjects, treated powder vs untreated 100-mesh salt powder, each equivalent to 20 mg vortioxetine): obvious and could hardly be tolerated | Instantaneous irritation [1]: ++ (+ + Irritating, tolerable) | Instantaneous irritation [2]: ++ (+ + Irritating, tolerable) | Instantaneous irritation [3]: +++ (+ + + Strong irritation, intolerable) | Instantaneous irritation [4]: +++ (+ + + Strong irritation, intolerable) | Instantaneous irritation [5]: +++ (+ + + Strong irritation, intolerable) | Instantaneous irritation [6]: +++ (+ + + Strong irritation, intolerable) | Instantaneous irritation [7]: +++ (+ + + Strong irritation, intolerable) | Instantaneous irritation [8]: +++ (+ + + Strong irritation, intolerable) | Instantaneous irritation [9]: ++ (+ + Irritating, tolerable) | Instantaneous irritation [10]: ++ (+ + Irritating, tolerable) | Delayed irritation [1]: >30 min | Delayed irritation [2]: 15 to 30 min | Delayed irritation [3]: >30 min | Delayed irritation [4]: >30 min | Delayed irritation [5]: >30 min | Delayed irritation [6]: >30 min | Delayed irritation [7]: >30 min | Delayed irritation [8]: >30 min | Delayed irritation (Subject 1, listed as Reference sample (5)): 15 to 30 min | Delayed irritation (Subject 1, listed as Reference sample (6)): 15 to 30 min | Delayed irritation (Subject 1, listed as Reference sample (7a)): >30 min | Delayed irritation (Subject 1, listed as Reference sample (8a)): 15 to 30 min | Delayed irritation (Subject 1, listed as Reference sample (8b)): 15 to 30 min | Delayed irritation [9]: 15 to 30 min | Delayed irritation [10]: >30 min | Instantaneous irritation [11]: +++ (+ + + Strong irritation, intolerable) | Instantaneous irritation [12]: +++ (+ + + Strong irritation, intolerable) | Instantaneous irritation [13]: ++ (+ + Irritating, tolerable) | Instantaneous irritation [14]: ++ (+ + Irritating, tolerable) | Instantaneous irritation [15]: ++ (+ + Irritating, tolerable) | Instantaneous irritation [16]: ++ (+ + Irritating, tolerable) | Instantaneous irritation [17]: ++ (+ + Irritating, tolerable) | Instantaneous irritation [18]: ++ (+ + Irritating, tolerable) | Instantaneous irritation [19]: +++ (+ + + Strong irritation, intolerable) | Instantaneous irritation [20]: ++ (+ + Irritating, tolerable) | Delayed irritation [11]: >30 min | Delayed irritation [12]: >30 min | Delayed irritation [13]: 15 to 30 min | Delayed irritation [14]: 15 to 30 min | Delayed irritation [15]: 15 to 30 min | Delayed irritation [16]: 15 to 30 min | Delayed irritation [17]: 15 to 30 min | Delayed irritation [18]: 15 to 30 min | Delayed irritation (Subject 2, listed as Reference sample (5)): >30 min | Delayed irritation (Subject 2, listed as Reference sample (6)): >30 min | Delayed irritation (Subject 2, listed as Reference sample (7a)): 15 to 30 min | Delayed irritation (Subject 2, listed as Reference sample (8a)): 15 to 30 min | Delayed irritation (Subject 2, listed as Reference sample (8b)): 15 to 30 min | Delayed irritation [19]: >30 min | Delayed irritation [20]: 15 to 30 min | Instantaneous irritation [21]: +++ (+ + + Strong irritation, intolerable) | Instantaneous irritation [22]: +++ (+ + + Strong irritation, intolerable) | Instantaneous irritation [23]: +++ (+ + + Strong irritation, intolerable) | Instantaneous irritation [24]: +++ (+ + + Strong irritation, intolerable) | Instantaneous irritation [25]: ++ (+ + Irritating, tolerable) | Instantaneous irritation [26]: ++ (+ + Irritating, tolerable) | Instantaneous irritation [27]: ++ (+ + Irritating, tolerable) | Instantaneous irritation [28]: +++ (+ + + Strong irritation, intolerable) | Instantaneous irritation [29]: +++ (+ + + Strong irritation, intolerable) | Instantaneous irritation [30]: +++ (+ + + Strong irritation, intolerable) | Delayed irritation [21]: >30 min | Delayed irritation [22]: >30 min | Delayed irritation [23]: 1 to 15 min | Delayed irritation [24]: 1 to 15 min | Delayed irritation [25]: >30 min | Delayed irritation [26]: >30 min | Delayed irritation [27]: >30 min | Delayed irritation [28]: >30 min | Delayed irritation (Subject 3, listed as Reference sample (5)): 15 to 30 min | Delayed irritation (Subject 3, listed as Reference sample (6)): 15 to 30 min | Delayed irritation (Subject 3, listed as Reference sample (7a)): 15 to 30 min | Delayed irritation (Subject 3, listed as Reference sample (8a)): >30 min | Delayed irritation (Subject 3, listed as Reference sample (8b)): >30 min | Delayed irritation [29]: >30 min | Delayed irritation [30]: 1 to 15 min | Instantaneous irritation (Subject 4, listed as Reference sample (1a)): ++ (+ + Irritating, tolerable) | Instantaneous irritation (Subject 4, listed as Reference sample (1e)): ++ (+ + Irritating, tolerable)
